From paper PMC5338263, “GS-5734 and its parent nucleoside analog inhibit Filo-, Pneumo-, and Paramyxoviruses” (Scientific Reports, 2017)
Where two headings read alike, the source gives them in different places.

Assays:
[1] = system: NiV M-1999; experiment: microbe, parasite or virus in culture; format: cell-based, Nipah virus; details: Henipavirus nipahense, HeLa
[2] = system: EBOV minigenome; experiment: cells; format: cell-based, Ebola virus
[3] = system: NiV minigenome; experiment: cells; format: cell-based, Nipah virus
[4] = system: Filo (filoviruses); experiment: organism not typed; format: cell-based; details: read-out: potency class (EC50)
[5] = system: Pneumo; experiment: Potency by virus family (Fig. 2), Pneumo; format: cell-based; details: read-out: potency class (EC50)
[6] = system: Paramyxo; experiment: Potency by virus family (Fig. 2), Paramyxo; format: cell-based; details: read-out: potency class (EC50)
[7] = system: Bunya; experiment: Potency by virus family (Fig. 2), Bunya; format: cell-based; details: read-out: potency class (EC50)
[8] = system: Arena; experiment: Potency by virus family (Fig. 2), Arena; format: cell-based; details: read-out: potency class (EC50)
[9] = system: EBOV Rec. Mayinga-Gluc
[10] = system: MARV Rec. Bat371-Gluc
[11] = system: HeV 1996
[12] = system: LASV Josiah
[13] = system: AHFV 200300001
[14] = system: Ebola virus; details: in vivo; cited from earlier work
[15] = system: Ebola virus; details: human, in vivo; cited from earlier work
[16] = system: EBOV Rec. Mayinga-GFP (Ebola virus); experiment: in vitro; details: human
[17] = system: EBOV Makona (Ebola virus); experiment: in vitro; details: human
[18] = system: MARV Rec. Bat371-Gluc (Marburg virus); experiment: in vitro; details: human
[19] = system: NiV Rec. M-Luc2AM (Nipah virus); experiment: in vitro; details: human
[20] = system: NiV B-2004 (Nipah virus); experiment: in vitro; details: human
[21] = system: ANDV Chile 9717869 (Andes virus); experiment: in vitro; details: human
[22] = system: LASV Josiah (Lassa virus); experiment: in vitro; details: human
[23] = system: AHFV 200300001 (Alkhurma Hemorrhagic Fever virus); experiment: in vitro; details: human
[24] = system: KFDV P9605 (Kyasanur Forest Disease virus); experiment: in vitro; details: human
[25] = system: TBEV Hypr (Tick-borne Encephalitis virus); experiment: in vitro; details: human
[26] = system: OHFV Bogoluvovska (Omsk Hemorrhagic Fever virus); experiment: in vitro; details: human
[27] = system: MARV Rec. Bat371-Gluc; experiment: organism not typed; details: Huh-7
[28] = system: MARV Rec. Bat371-GFP; experiment: organism not typed; details: Huh-7
[29] = system: reporter and wild-type filo-, pneumo-, and paramyxoviruses; experiment: organism not typed; details: read-out: EC50 values (range over viruses)
[30] = system: HeV 1996; experiment: microbe, parasite or virus in culture; details: Henipavirus hendraense, HeLa
[31] = system: ANDV Chile 9717869; experiment: microbe, parasite or virus in culture; details: Orthohantavirus andesense, Huh-7
[32] = system: KFDV P9605; experiment: microbe, parasite or virus in culture; details: Kyasanur Forest disease virus, A549
[33] = system: OHFV Bogoluvovska; experiment: microbe, parasite or virus in culture; details: Omsk hemorrhagic fever virus, A549
[34] = Cell viability assay (CellTiter-Glo 2.0), A549; details: human, uninfected A549 cells
[35] = Cell viability assay (CellTiter-Glo 2.0), HMVEC-L; details: human
[36] = Cell viability assay (CellTiter-Glo 2.0), macrophages; details: human, uninfected peripheral blood macrophages (Mϕ)
[37] = system: hMPV Rec. CAN97-83-GFP; experiment: microbe, parasite or virus in culture; format: cell-based; details: human metapneumovirus, Vero
[38] = system: MV EZ vaccine
[39] = system: MuV IA 2006
[40] = system: WNV; details: cited from earlier work
[41] = system: hPIV3; details: cited from earlier work
[42] = system: NiV B-2004 (Nipah virus); experiment: in vitro; details: human; remark: listed apart in the source
[43] = system: HeV 1996 (Hendra virus); experiment: in vitro; details: human
[44] = system: MV EZ vaccine (Measles virus); experiment: in vitro; details: human
[45] = system: MV EZ vaccine; experiment: microbe, parasite or virus in culture; details: Measles morbillivirus, HeLa
[46] = Cell viability assay (CellTiter-Glo 2.0), 293T/17; details: human, uninfected 293T/17 cells

CCC(CC)COC(=O)[C@H](C)N[P@](=O)(OC[C@H]1O[C@@](C#N)(c2ccc3c(N)ncnn23)[C@H](O)[C@@H]1O)Oc1ccccc1 [GS-5734]
EC50 [1]: 65.5 ± 16 nM | EC50 [2]: sub-micromolar range | EC50 ([2]; Zaire ebolavirus, Huh-7, 48 h): 420 nM | EC50 [3]: sub-micromolar range | EC50 ([3]; Henipavirus nipahense, HeLa, 48 h): 49 nM | EC50 [4]: < 100 nM | EC50 [5]: < 100 nM | EC50 [6]: < 100 nM | EC50 [7]: > 4000 nM | EC50 [8]: > 4000 nM | EC50 [9]: 21 nM | EC50 [10]: 19 nM | EC50 [11]: 55 nM | EC50 [12]: 4500 nM | EC50 [13]: 4200 nM | protection from lethal Ebola virus infection [14]: protected | survival of patients [15]: both of whom survived | selectivity ratio [16]: 151 | selectivity ratio [17]: 666 | selectivity ratio [18]: 526 | selectivity ratio [19]: 184 | selectivity ratio [20]: 259 | selectivity ratio [21]: 1.4 | selectivity ratio [22]: 2.2 | selectivity ratio [23]: 2.4 | selectivity ratio [24]: 5.6 | selectivity ratio [25]: 4.8 | selectivity ratio [26]: 8.3 | EC50 [27]: 19.3 nM | EC90 [27]: 52 nM | EC50 [28]: 13.9 ± 0.3 nM | EC90 [28]: 47 nM | EC50 [29]: 3 to 790 nM | EC50 [30]: 54.8 ± 1.3 nM | EC90 [30]: 117 nM | EC50 [31]: 6950 ± 3100 nM | EC90 [31]: 10100 nM | EC90 [32]: 3400 nM | EC90 [33]: 3900 nM | CC50 at 72 h [34]: > 10000 nM | CC50 at 72 h [35]: 8500 nM | CC50 at 72 h [36]: 2000 nM

N#C[C@@]1(c2ccc3c(N)ncnn23)O[C@H](CO)[C@@H](O)[C@H]1O [Nuc]
EC50 [37]: 730 nM | EC90 [37]: 1700 nM | EC50 [38]: 2000 nM | EC50 [39]: 9700 nM | antiviral activity (active or not) [40]: not | antiviral activity (active or not) [41]: shown to have activity | selectivity ratio [16]: 31 | selectivity ratio [17]: 50 | selectivity ratio [19]: 33 | selectivity ratio [42]: 60 | selectivity ratio [43]: 50 | selectivity ratio [44]: 25 | EC50 [28]: 1860 ± 130 nM | EC90 [28]: 4600 nM | EC50 [45]: 2010 nM | EC90 [45]: 5100 nM | EC50 [32]: 46300 nM | EC90 [32]: > 350000 nM | EC50 [33]: 50600 nM | EC90 [33]: > 350000 nM | CC50 at 72 h [46]: > 50000 nM
